Experimental data: US7157083B2, “Compositions and methods for treating retroviral infections” (priority 1998, dated 2007)

System: clinical isolate ROJO (low passage HIV-1) in human PBMCs
Test: Study 1 PBMC assay: reverse transcriptase activity after ROJO infection (Treatments A, B, C)
Format: cell-based
Description: Percent virus control (% VC) in the following tables is the mean RT activity (cpm) as a percentage of a virus control. Percent cell control (% CC) is the mean XTT absorbance as a percentage of a cell control.
Peripheral blood monocular cells (PBMCs) are obtained from normal hepatitis and HIV-1 negative donors by ficoll hypaque gradient separation. Briefly, anti-coagulated blood is diluted 1:1 with Dulbecco's phosphate buffered saline without Ca^++ and Mg^++ (PBS) and layered over 14 mL of Lymphocyte separation media in a 50 ml centrifuge tube. Tubes are then centrifuged for 30 minutes at 600× g. Banded PBLs are gently aspirated from the resulting interface and subsequently washed 2× with PBS by low speed centrifugation. The mononuclear cells are counted, viability determined by Trypan Blue dye exclusion and resuspended in RPM1640 medium supplemented with 15% FBS (heat inactivated), 2 mM L-glutamine, 100 U/mL penicillin, 100 μg/mL streptomycin, and 10 μg/mL gentamycin with 2 μg/mL phytohemagluttin (PHA) at 1×10^6 cells/mL. The cells are cultured for 48 to 72 h at 37° C., 5% CO2 Following incubation, cells are collected by centrifugation, washed and resuspended in RPMI 1640 supplemented with 15% FBS (heat inactivated), 2 Mm L-glutamine, 100 U/mL penicillin, 100 μg/mL streptomycin, and 10 μg/mL gentamycin with 20 U/mL recombinant IL-2 (R & D Systems, Minneapolis, Minn.). IL-2 is included in the culture medium to maintain the cell division initiated by the PHA mitogenic stimulation. The cultures are then maintained until use by ½ culture volume change with fresh IL-2 containing medium every 3 days.
Human peripheral blood mononuclear cells from a minimum of 2 donors, that have been blasted with PHA and IL-2, are counted, viability determined by Trypan Blue dye exclusion and mixed in equal ratios. Pooled donors are used to minimize the variability observed between individual donors which results from quantitative and qualitative differences in HIV infection and overall response to the PHA and IL-2 of primary lymphocyte populations. The cells are resuspended at 1×10^6 cells/mL in RPMI 1640 without phenol red supplemented with 15% Fetal Bovine Serum (heat inactivated), 2 mM L-glutamine, 100 U/mL penicillin, 100 μg/mL streptomycin, 10 μg/mL gentamycin and IL-2 (20 U/mL, R&D Systems, Minneapolis, Minn.). Fifty microliters of cells are then distributed to the inner 60 wells of a 96 well round bottom Microtiter culture plate in a standard format developed by the Infectious Disease Research department of Southern Research Institute. Each plate contains cell control wells (cells only), virus control wells (cell plus virus), and experimental wells (drug plus cells plus virus).
Using an in-house computer program, IC50 (50% inhibition of virus replication), TC50 (50% reduction in cell viability) and a therapeutic index (TI, […]) were determined. AZT was used as a relevant positive control compound for the individual assays.
This study compares the ability of hyaluronidase to AZT to lower viral replication as measured by reverse transcriptase levels. RT was measured on days 7, 14, and 21. Three different treatment regimens were used in the comparative study (Treatments A, B and C).
Treatment A. Normal mixed PHA blasted human PBMCs (5×10e4/well) were pretreated with drug every 48 hours for 3 doses. On day 6 of pretreatment, cells were infected with clinical isolate ROJO. 48 hours post infection, treatment with drugs continued for an additional 3 treatments. Samples for assay were collected on D7 (day 7), 14, 21, post infection, frozen and later analyzed for reverse transcriptase.
Treatment B. Normal mixed PHA blasted human PBMCs (as above) were plated in 96 wells and allowed to incubate for 48 hours (cells were set at same time as treatment A from same pool). Drug pretreatment started on day 2 and was repeated on day 4. On day 6, cell were infected as in treatment A, with concurrent addition of drug for a total of 3 treatments. […]

**Q.** What does the source list for Hyaluronidase?
**A.** RT activity % VC (Treatment A, 0.00165 units/mL, Day 7): 131.1%; RT activity % VC (Treatment A, 0.00165 units/mL, Day 14): 21.6%; RT activity % VC (Treatment A, 0.00165 units/mL, Day 21): 24.4%; RT activity % VC (Treatment A, 0.00515 units/mL, Day 7): 49.5%; RT activity % VC (Treatment A, 0.00515 units/mL, Day 14): 14.9%; RT activity % VC (Treatment A, 0.00515 units/mL, Day 21): 5.1%; RT activity % VC (Treatment A, 0.01611 units/mL, Day 7): 1.1%; RT activity % VC (Treatment A, 0.01611 units/mL, Day 14): 0.1%; RT activity % VC (Treatment A, 0.01611 units/mL, Day 21): 0.6%; RT activity % VC (Treatment A, 0.05033 units/mL, Day 7): 1.0%; RT activity % VC (Treatment A, 0.05033 units/mL, Day 14): 0.4%; RT activity % VC (Treatment A, 0.05033 units/mL, Day 21): 0.9%; RT activity % VC (Treatment A, 0.15729 units/mL, Day 7): 0.7%; RT activity % VC (Treatment A, 0.15729 units/mL, Day 14): 0.2%; RT activity % VC (Treatment A, 0.15729 units/mL, Day 21): 0.7%; RT activity % VC (Treatment A, 0.49152 units/mL, Day 7): 1.0%; RT activity % VC (Treatment A, 0.49152 units/mL, Day 14): 0.3%; RT activity % VC (Treatment A, 0.49152 units/mL, Day 21): 0.4%; RT activity % VC (Treatment A, 1.536 units/mL, Day 7): 1.6%; RT activity % VC (Treatment A, 1.536 units/mL, Day 14): 0.2%; RT activity % VC (Treatment A, 1.536 units/mL, Day 21): 1.2%; RT activity % VC (Treatment A, 4.8 units/mL, Day 7): 1.1%; RT activity % VC (Treatment A, 4.8 units/mL, Day 14): 0.3%; RT activity % VC (Treatment A, 4.8 units/mL, Day 21): 1.0%; RT activity % VC (Treatment A, 15 units/mL, Day 7): 1.1%; RT activity % VC (Treatment A, 15 units/mL, Day 14): 0.7%; RT activity % VC (Treatment A, 15 units/mL, Day 21): 1.1%; RT activity % VC (Treatment B, 0.00165 units/mL, Day 7): 47.1%; RT activity % VC (Treatment B, 0.00165 units/mL, Day 14): 10.5%; RT activity % VC (Treatment B, 0.00165 units/mL, Day 21): 5.1%; RT activity % VC (Treatment B, 0.00515 units/mL, Day 7): 6.0%; RT activity % VC (Treatment B, 0.00515 units/mL, Day 14): 1.0%; RT activity % VC (Treatment B, 0.00515 units/mL, Day 21): 0.8%; RT activity % VC (Treatment B, 0.01611 units/mL, Day 7): 3.6%; RT activity % VC (Treatment B, 0.01611 units/mL, Day 14): 0.6%; RT activity % VC (Treatment B, 0.01611 units/mL, Day 21): 0.2%; RT activity % VC (Treatment B, 0.05033 units/mL, Day 7): 3.0%; RT activity % VC (Treatment B, 0.05033 units/mL, Day 14): 0.4%; RT activity % VC (Treatment B, 0.05033 units/mL, Day 21): 0.9%; RT activity % VC (Treatment B, 0.15729 units/mL, Day 7): 2.8%; RT activity % VC (Treatment B, 0.15729 units/mL, Day 14): 0.4%; RT activity % VC (Treatment B, 0.15729 units/mL, Day 21): 0.5%; RT activity % VC (Treatment B, 0.49152 units/mL, Day 7): 4.9%; RT activity % VC (Treatment B, 0.49152 units/mL, Day 14): 0.4%; RT activity % VC (Treatment B, 0.49152 units/mL, Day 21): 0.3%; RT activity % VC (Treatment B, 1.536 units/mL, Day 7): 4.1%; RT activity % VC (Treatment B, 1.536 units/mL, Day 14): 0.2%; RT activity % VC (Treatment B, 1.536 units/mL, Day 21): 0.4%; RT activity % VC (Treatment B, 4.8 units/mL, Day 7): 1.9%; RT activity % VC (Treatment B, 4.8 units/mL, Day 14): 0.5%; RT activity % VC (Treatment B, 4.8 units/mL, Day 21): 1.2%; RT activity % VC (Treatment B, 15 units/mL, Day 7): 3.4%; RT activity % VC (Treatment B, 15 units/mL, Day 14): 0.5%; RT activity % VC (Treatment B, 15 units/mL, Day 21): 0.7%; RT activity % VC (Treatment C, 0.00165 units/mL, Day 7): 104.0%; RT activity % VC (Treatment C, 0.00165 units/mL, Day 14): 42.4%; RT activity % VC (Treatment C, 0.00165 units/mL, Day 21): 23.5%; RT activity % VC (Treatment C, 0.00515 units/mL, Day 7): 100.4%; RT activity % VC (Treatment C, 0.00515 units/mL, Day 14): 26.0%; RT activity % VC (Treatment C, 0.00515 units/mL, Day 21): 13.2%; RT activity % VC (Treatment C, 0.01611 units/mL, Day 7): 3.9%; RT activity % VC (Treatment C, 0.01611 units/mL, Day 14): 1.8%; RT activity % VC (Treatment C, 0.01611 units/mL, Day 21): 1.0%; RT activity % VC (Treatment C, 0.05033 units/mL, Day 7): 3.4%; RT activity % VC (Treatment C, 0.05033 units/mL, Day 14): 0.4%; RT activity % VC (Treatment C, 0.05033 units/mL, Day 21): 0.6%; RT activity % VC (Treatment C, 0.15729 units/mL, Day 7): 3.0%; RT activity % VC (Treatment C, 0.15729 units/mL, Day 14): 0.2%; RT activity % VC (Treatment C, 0.15729 units/mL, Day 21): 0.8%; RT activity % VC (Treatment C, 0.49152 units/mL, Day 7): 4.1%; RT activity % VC (Treatment C, 0.49152 units/mL, Day 14): 0.2%; RT activity % VC (Treatment C, 0.49152 units/mL, Day 21): 0.4%; RT activity % VC (Treatment C, 1.536 units/mL, Day 7): 2.7%; RT activity % VC (Treatment C, 1.536 units/mL, Day 14): 0.4%; RT activity % VC (Treatment C, 1.536 units/mL, Day 21): 0.6%; RT activity % VC (Treatment C, 4.8 units/mL, Day 7): 4.6%; RT activity % VC (Treatment C, 4.8 units/mL, Day 14): 0.4%; RT activity % VC (Treatment C, 4.8 units/mL, Day 21): 0.7%; RT activity % VC (Treatment C, 15 units/mL, Day 7): 3.2%; RT activity % VC (Treatment C, 15 units/mL, Day 14): 0.6%; RT activity % VC (Treatment C, 15 units/mL, Day 21): 0.7%; reduction in viral replication as measured by reverse transcriptase, compared to AZT (Treatments A, B and C, days 7, 14, and 21): greater reduction in viral replication
